# According to BindingDB's records for doi:10.1016/s0960-894x(01)00306-7 (Atherogenics, 2001):
# Test: Ability to inhibit expression of Vascular cell adhesion molecule 1
row,SMILES,IC50
1,N#Cc1ccc(Cl)cc1[N+](=O)[O-] [4-Chloro-2-nitro-benzonitrile],5 µM
2,COC(=O)c1ccc(S(C)(=O)=O)c([N+](=O)[O-])c1 [4-Methanesulfonyl-3-nitro-benzoic acid methyl ester],5 µM
3,NS(=O)(=O)c1ccc(Cl)c([N+](=O)[O-])c1 [4-Chloro-3-nitro-benzenesulfonamide],40 µM
4,N#Cc1ccc(Cl)c([N+](=O)[O-])c1 [4-Chloro-3-nitro-benzonitrile],11 µM
5,"COCCN(CCOC)S(=O)(=O)c1ccc(Cl)c([N+](=O)[O-])c1 [4-Chloro-N,N-bis-(2-methoxy-ethyl)-3-nitro-benzenesulfonamide]",5 µM
6,O=C(c1ccccc1)c1ccc(Cl)c([N+](=O)[O-])c1 [(4-Chloro-3-nitro-phenyl)-phenyl-methanone],15 µM
7,O=[N+]([O-])c1cc(S(=O)(=O)NCc2ccccc2)ccc1Cl [N-Benzyl-4-chloro-3-nitro-benzenesulfonamide],18 µM
8,CN(CCCCCCN(C)S(=O)(=O)c1ccc(Cl)c([N+](=O)[O-])c1)S(=O)(=O)c1ccc(Cl)c([N+](=O)[O-])c1 [1N-{6-[4-chloro-3-nitrophenyl(methyl)sulfonamido]hexyl}-1N-methyl-4-chloro-3-nitro-1-benzenesulfonamide],30 µM
9,"N#Cc1cc([N+](=O)[O-])cc([N+](=O)[O-])c1 [3,5-Dinitro-benzonitrile]",10 µM
10,CN(CCCN(C)S(=O)(=O)c1ccc(Cl)c([N+](=O)[O-])c1)S(=O)(=O)c1ccc(Cl)c([N+](=O)[O-])c1 [1N-{3-[4-chloro-3-nitrophenyl(methyl)sulfonamido]propyl}-1N-methyl-4-chloro-3-nitro-1-benzenesulfonamide],6 µM
11,CCN(C)S(=O)(=O)c1ccc(Cl)c([N+](=O)[O-])c1 [4-Chloro-N-ethyl-N-methyl-3-nitro-benzenesulfonamide],10 µM
12,O=Cc1ccc(Cl)c([N+](=O)[O-])c1 [4-Chloro-3-nitro-benzaldehyde],15 µM
13,"O=[N+]([O-])c1cc(S(=O)(=O)N(CCO)CCO)ccc1Cl [4-Chloro-N,N-bis-(2-hydroxy-ethyl)-3-nitro-benzenesulfonamide]",19 µM
14,CNS(=O)(=O)c1ccc(Cl)c([N+](=O)[O-])c1 [4-Chloro-N-methyl-3-nitro-benzenesulfonamide],11 µM
15,CN1CCN(S(=O)(=O)c2ccc(Cl)c([N+](=O)[O-])c2)CC1 [1-(4-Chloro-3-nitro-benzenesulfonyl)-4-methyl-piperazine],8 µM
16,"CC(C)N(C(C)C)S(=O)(=O)c1ccc(Cl)c([N+](=O)[O-])c1 [4-Chloro-N,N-diisopropyl-3-nitro-benzenesulfonamide]",10 µM
17,"CCCCCN(CCCCC)S(=O)(=O)c1ccc(Cl)c([N+](=O)[O-])c1 [4-Chloro-3-nitro-N,N-dipentyl-benzenesulfonamide]",7 µM
18,O=C(c1ccc(Cl)c([N+](=O)[O-])c1)c1ccc(Cl)c([N+](=O)[O-])c1 [Bis-(4-chloro-3-nitro-phenyl)-methanone],5 µM
19,O=[N+]([O-])c1cc(S(=O)(=O)c2ccc(F)c([N+](=O)[O-])c2)ccc1F [1-fluoro-4-[(4-fluoro-3-nitrophenyl)sulfonyl]-2-nitrobenzene],7 µM
20,"CCCCN(CCCC)S(=O)(=O)c1ccc(Cl)c([N+](=O)[O-])c1 [N,N-Dibutyl-4-chloro-3-nitro-benzenesulfonamide]",10 µM
21,"CCCN(CCC)S(=O)(=O)c1ccc(Cl)c([N+](=O)[O-])c1 [4-Chloro-3-nitro-N,N-dipropyl-benzenesulfonamide]",9 µM
22,"CCN(CC)S(=O)(=O)c1ccc(Cl)c([N+](=O)[O-])c1 [4-Chloro-N,N-diethyl-3-nitro-benzenesulfonamide]",3 µM
23,N#Cc1cc([N+](=O)[O-])ccc1Cl [2-Chloro-5-nitro-benzonitrile],17 µM
24,CCN(C(C)C)S(=O)(=O)c1ccc(Cl)c([N+](=O)[O-])c1 [4-Chloro-N-ethyl-N-isopropyl-3-nitro-benzenesulfonamide],15 µM
25,CCNS(=O)(=O)c1ccc(Cl)c([N+](=O)[O-])c1 [4-Chloro-N-ethyl-3-nitro-benzenesulfonamide],15 µM
26,CCOC(=O)C1CCN(S(=O)(=O)c2ccc(Cl)c([N+](=O)[O-])c2)CC1 [1-(4-Chloro-3-nitro-benzenesulfonyl)-piperidine-4-carboxylic acid ethyl ester],8 µM
27,"CN(C)S(=O)(=O)c1ccc(Cl)c([N+](=O)[O-])c1 [4-Chloro-N,N-dimethyl-3-nitro-benzenesulfonamide]",10 µM
28,O=[N+]([O-])c1cc(S(=O)(=O)N2CCCC2)ccc1Cl [1-(4-Chloro-3-nitro-benzenesulfonyl)-pyrrolidine],4 µM
29,"N#Cc1cc([N+](=O)[O-])c(Cl)c([N+](=O)[O-])c1 [4-Chloro-3,5-dinitro-benzonitrile]",20 µM
